{"source": "patent US7148204B2", "about": "“Antisense modulation of bcl-x expression” (Isis Pharmaceuticala, Inc., priority 1998, dated 2006)", "key": {"[1]": {"test_system": "bcl-x", "test": "bcl-x protein in SEM-K2 cells by flow cytometry", "type": "cell-based, human", "settings": "10 μM without cationic lipid, 48 hours after initial treatment", "protocol": "SEM-K2 is a human cell line derived from a patient suffering from a t(4;11) acute lymphoblastic leukemia. Pocock, C. F. E. et al., Br. J. Haematol. (1995), 90(4), 855–67. SEM-K2 cells in exponential phase of growth were maintained in […] medium (Life Technologies, Inc., Gaithersburg, Md.) supplemented with 10% fetal bovine serum, 2 mM glutamine and penicillin/streptomycin, at 37°C. in 5%CO2/95% air. Cells were transferred in 1 mL volumes at approximately 1–5×10^6 cells/ml to 24-well plates. After one hour, 10 μM of ISIS 15999 or scrambled control 15691 ([…]; SEQ ID No. 41) was added to wells, without cationic lipid. At 24 hours and 48 hours repeat doses of 5 μM oligonucleotide were added. […]\nFor Western blot and flow cytometric protein analysis, cells were washed once in phosphate-buffered saline and pelleted by centrifugation at 1200 rpm for 5 minutes, and resuspended in cell lysis buffer (5M NaCl, 0.1 M HEPES, 500 mM sucrose, 0.5M EDTA, 100 mM spermine, 1 mg/ml aprotinin, 10% Triton X-100) for 15 minutes on ice. Total protein was quantified spectrophotometrically (BioRad) and 100 μg lysate was loaded onto 15% polyacrylamide gels and run at 200V for 45 minutes. […] Cells were analyzed using a FACScalibur™ running Cellquest software (Becton Dickinson, Franklin Lakes, N.J.). […] Fluorescence detector 1 was used with logarithmic amplification for detection of FITC fluorescence. […]"}, "[2]": {"test_system": "CEM-C7 cells", "test": "Viable cell counts of CEM cells (propidium iodide exclusion, flow cytometry)", "type": "cell-based, human", "settings": "for viability by propidium iodide exclusion: 20 μM electroporation", "protocol": "CEM-C7 cells (Norman et al., 1978), a glucocortocoid sensitive clone of the human T-lymphoblastic cell line CEM, were cultured between 5×10^4 to 10^6 cells/ml in RPMI 1640 medium containing 10% heat-inactivated fetal bovine serum (FBS), streptomycin, penicillin G, 15 mM HEPES, 2 mM sodium pyruvate, at 37° C. in a humid, 5% CO2 incubator. Viable cell counts were performed by propidium iodide staining and flow cytometry.\nCEM-C7 cells were electroporated with the indicated concentrations of oligonucleotides at 150 volts, 1,700 microFaraday (μF), and a resistance setting of 5 with a BTX electroporation apparatus (Genetronics, San Diego, Calif.) in 2-mm gap cuvettes containing 5×10^6 cells in 200 μl RPMI plus 20% FBS on ice. Cells were left on ice for 10 minutes, then plated in 5 ml complete media."}}, "data": [{"sequence": "TCCCGGTTGCTCTGAGACAT (5-10-5 2'-MOE gapmer, phosphorothioate, further chemistry not given here) [ISIS 15999]", "values": [{"measurement": "reduction in bcl-x (median fluorescence intensity)", "setting": "[1]", "result": 50, "unit": "%"}, {"measurement": "viability by propidium iodide exclusion", "setting": "[2]; CEM cells, 48 hours", "result": 33, "unit": "%"}, {"measurement": "viability by propidium iodide exclusion", "setting": "[2]; CEM cells, 72 hours", "result": 46, "unit": "%"}, {"measurement": "cell count less than control antisense treated cells", "setting": "[2]; CEM cells, highest concentration, 20 hours after electroporation", "result": 40, "unit": "%"}, {"measurement": "viability of CEM cells", "setting": "[2]; twenty hours after electroporation", "result": "dose dependent decrease"}]}]}
